Read-outs that look alike come from different tables or passages of the source.
Assays:
[1] = tested on: angiotensin I-converting enzyme; test: Suppressive effect on the pressor response to angiotensin I in unanesthetized rats, oral administration (angiotensin I-converting enzyme inhibition); format: in vivo, Male Wistar strain rats; settings: rat, angiotensin I 300 ng/kg i.v.
Experimental: As recently it has been clear that the compounds inhibiting angiotensin I-converting enzyme may be the curative potency against both renal hypertension and essential hypertension, the compounds [I] of this invention are evaluated as antihypertensive agents by the following method.
Male Wistar strain rats weighing 200-300 g were used. Under ether anesthesia, polyethylene cannulae are inserted into carotid artery and jugular vein. The cannula to carotid artery is connected to an electric transducer, while the cannula to jugular vein is connected to an apparatus for continuous infusion. After the complete recovery from anesthesia, angiotensin I is infused intravenously in a dose of 300 ng/kg by the apparatus for continuous infusion, and the pressor response is recorded by polygraph (Nihon Koden, RM-150). The compounds of this invention suspended in 0.5% tragacanth solution are administered orally in a dose of 0.3 ml per 100 g of body weight, and the pressor response to angiotensin I infused intravenously is measured with time.

[2] = Acute toxicity test in mice, oral; set-up: species or system male ddy-std. strain mice; settings: mouse, in vivo, male ddy-std. mice, 0.5% tragacanth suspension
Experimental: The male ddy-std. strain mice (4 weeks of age, weighing 19-21 g) were placed in a breeding room of constant temperature and humidity (23°±1° C., 55±5%) and fed freely pellet diet (CE-2, Clea Japan, Inc.) and water ad. libitum for a week. The mice showing the normal growth were selected for the experiment.
Test compound is suspended in 0.5% tragacanth solution, and administered orally in a dose of 0.5 ml per 20 g B.W.

Aldose reductase = molecular target: T1, Aldose reductase (Rattus norvegicus, UniProt P07943); test: Inhibitory activity against aldose reductase purified from rat lenses (absorbance at 340 nm); format: biochemical
T1 construct: Aldose reductase is purified from rat lenses; from tissue; host or cells: rat lens

[3] = pH 6.2, DL-glyceraldehyde 4×10^-4 M, NADPH 5×10^-5 M, read-out: IC50 (molar concentration producing 50% inhibition of aldose reductase)

Row | IC50 (Aldose reductase; [3]) [nM] | Structure (SMILES) | Inhibition (%) of pressor response to angiotensin I ([1]; dose 1.0 mg/kg oral, 25 min) [%] | Inhibition (%) of pressor response to angiotensin I ([1]; dose 1.0 mg/kg oral, 65 min) [%] | also measured
1 |  | O=C(O)C1CCC(c2ccccc2O)N1C(=O)CCS (single isomer, unassigned) [Compound 27A, α-(+)5-(2-hydroxyphenyl)-1-(3-mercaptopropanoyl)-2-pyrrolidinecarboxylic acid, reference compound] |  |  | Inhibition (%) of pressor response to angiotensin I ([1]; dose 1.3 mg/kg oral, 25 min): 70%; Inhibition (%) of pressor response to angiotensin I ([1]; dose 1.3 mg/kg oral, 65 min): 50%
2 |  | O=C(O)C1CCC(c2ccccc2O)N1C(=O)CCSSCCC(=O)N1C(C(=O)O)CCC1c1ccccc1O (single isomer, unassigned) [Compound 27] |  |  | Inhibition (%) of pressor response to angiotensin I ([1]; dose 1.3 mg/kg oral, 25 min): 65%; Inhibition (%) of pressor response to angiotensin I ([1]; dose 1.3 mg/kg oral, 65 min): 55%
3 |  | O=C(O)[C@@H]1CSC(c2ccccc2O)N1C(=O)CCS (stereo partly drawn) [Compound 1A, (4R)2-(2-hydroxyphenyl)-3-(3-mercaptopropanoyl)-4-thiazolidinecarboxylic acid, reference compound] | 55 | 35 | 
4 | 97 | C[C@H](CSSC[C@@H](C)C(=O)N1C(c2ccccc2O)SC[C@H]1C(=O)O)C(=O)N1C(c2ccccc2O)SC[C@H]1C(=O)O (stereo partly drawn) [Compound 2, (4R,4'R)-3,3'-[3,3'-Dithiobis[(2S)-2-methylpropanoyl]]bis[2-(2-hydroxyphenyl)-4-thiazolidinecarboxylic acid]] |  |  | Inhibition (%) of pressor response to angiotensin I ([1]; dose 1.4 mg/kg oral, 25 min): 30%; Inhibition (%) of pressor response to angiotensin I ([1]; dose 1.4 mg/kg oral, 65 min): 35%
5 |  | C[C@H](CS)C(=O)N1C(c2ccccc2O)SC[C@H]1C(=O)O (stereo partly drawn) [Compound 2A, (4R)2-(2-hydroxyphenyl)-3-[(2S)-3-mercapto-2-methylpropanoyl]-4-thiazolidinecarboxylic acid, reference compound] |  |  | Inhibition (%) of pressor response to angiotensin I ([1]; dose 1.4 mg/kg oral, 25 min): 40%; Inhibition (%) of pressor response to angiotensin I ([1]; dose 1.4 mg/kg oral, 65 min): 30%
6 | 96 | O=C(O)[C@@H]1CSC(c2ccccc2O)N1C(=O)CCCSSCCCC(=O)N1C(c2ccccc2O)SC[C@H]1C(=O)O (stereo partly shown) [Compound 4] |  |  | 
7 | 200 | O=C(O)[C@@H]1CSC(c2ccccc2)N1C(=O)CCSSCCC(=O)N1C(c2ccccc2)SC[C@H]1C(=O)O (stereo partly shown) [Compound 7] |  |  | 
8 | 450 | Cc1ccc(C2SC[C@@H](C(=O)O)N2C(=O)[C@H](C)CSSC[C@@H](C)C(=O)N2C(c3ccc(C)cc3)SC[C@H]2C(=O)O)cc1 (stereo partly drawn) [Compound 8, (4R,4'R)-3,3'-[3,3'-dithiobis[(2S)-2-methylpropanoyl]]bis[2-(4-methylphenyl)-4-thiazolidinecarboxylic acid]] |  |  | 
9 | 730 | O=C(O)[C@@H]1CSC(c2cccc(O)c2)N1C(=O)CCSSCCC(=O)N1C(c2cccc(O)c2)SC[C@H]1C(=O)O (stereo partly shown) [Compound 10] |  |  | 
10 | 640 | C[C@H](CSSC[C@@H](C)C(=O)N1C(c2cc(Cl)ccc2O)SC[C@H]1C(=O)O)C(=O)N1C(c2cc(Cl)ccc2O)SC[C@H]1C(=O)O (stereo partly drawn) [Compound 11, (4R,4'R)-3,3'-[3,3'-dithiobis[(2S)-2-methylpropanoyl]]bis[2-(5-chloro-2-hydroxyphenyl)-4-thiazolidinecarboxylic acid]] |  |  | 
11 | 310 | O=C(O)[C@@H]1CSC(c2ccccc2O)N1C(=O)CSSCC(=O)N1C(c2ccccc2O)SC[C@H]1C(=O)O (stereo partly shown) [Compound 15] |  |  | 
12 | 870 | C[C@H](CSSC[C@@H](C)C(=O)N1C(c2cccc3ccccc23)SC[C@H]1C(=O)O)C(=O)N1C(c2cccc3ccccc23)SC[C@H]1C(=O)O (stereo partly shown) [Compound 24] |  |  | 
13 | 860 | CCCSSCCC(=O)N1C(c2ccccc2O)SC[C@H]1C(=O)O (stereo partly drawn) [Compound 34, (4R)-2-(2-Hydroxyphenyl)-3-(3-propyldisulfanylpropanoyl)-4-thiazolidinecarboxylic acid] | 45 | 55 | 
14 |  | COc1ccc(C2SC[C@@H](C(=O)O)N2C(=O)[C@H](C)CS)cc1 (stereo partly drawn) [Compound 37A, (4R)3-[(2S)-3-mercapto-2-methylpropanoyl]-2-(4-methoxyphenyl)-4-thiazolidinecarboxylic acid, reference compound] | 40 | 20 | 
15 |  | C=CCSSC[C@@H](C)C(=O)N1C(c2ccc(OC)cc2)SC[C@H]1C(=O)O (stereo partly shown) [Compound 37] | 60 | 35 | 
16 | 840 | O=C(O)[C@@H]1CSC(c2ccccc2O)N1C(=O)CCSSCC1CCCO1 (stereo partly shown) [Compound 39] |  |  | 
17 | 20 | O=C(O)CCSSCCC(=O)N1C(c2ccccc2O)SC[C@H]1C(=O)O (stereo partly drawn) [Compound 41, (4R)-3-[3-(2-Carboxyethyldisulfanyl)propanoyl]-2-(2-hydroxyphenyl)-4-thiazolidinecarboxylic acid] |  |  | Inhibition (%) of pressor response to angiotensin I ([1]; dose 1.3 mg/kg oral, 25 min): 50%; Inhibition (%) of pressor response to angiotensin I ([1]; dose 1.3 mg/kg oral, 65 min): 60%
18 |  | CCCSSC[C@@H](C)C(=O)N1CSC[C@H]1C(=O)O [Compound 43, (4R)-3-[(2S)-2-methyl-3-propyldisulfanylpropanoyl]-4-thiazolidinecarboxylic acid] | 70 | 40 | 
19 |  | C[C@H](CS)C(=O)N1CSC[C@H]1C(=O)O [Compound 43A, (4R)3-[(2S)-3-mercapto-2-methylpropanoyl]-4-thiazolidinecarboxylic acid, reference compound] | 50 | 30 | 
20 |  | CC(C)(C)C(=O)OCOC(=O)[C@@H]1CSC(c2ccccc2O)N1C(=O)CCSSCCC(=O)N1C(c2ccccc2O)SC[C@H]1C(=O)OCOC(=O)C(C)(C)C (stereo partly drawn) [Compound 49, Bis[(2,2-dimethyl-1-oxopropoxy)methyl](4R,4'R)-3,3'-[3,3'-dithiobis(propanoyl)]bis[2-(2-hydroxyphenyl)-4-thiazolidinecarboxylate]] |  |  | Inhibition (%) of pressor response to angiotensin I ([1]; dose 1.3 mg/kg oral, 25 min): 35%; Inhibition (%) of pressor response to angiotensin I ([1]; dose 1.3 mg/kg oral, 65 min): 60%
21 |  | C[C@@H]1O[C@@H](Oc2c(-c3ccc(O)c(O)c3)oc3cc(O)cc(O)c3c2=O)[C@H](O)[C@H](O)[C@H]1O [Control, Quercitrin, reference compound] |  |  | IC50 (Aldose reductase): 90 nM

Row | Structure (SMILES) | IC50 (Aldose reductase; [3]) [nM] | Inhibition (%) of pressor response to angiotensin I ([1]; dose 1.0 mg/kg oral, 25 min) [%] | Inhibition (%) of pressor response to angiotensin I ([1]; dose 1.0 mg/kg oral, 65 min) [%] | also measured
22 | O=C(O)[C@@H]1CSC(c2ccccc2O)N1C(=O)CCSSCCC(=O)N1C(c2ccccc2O)SC[C@H]1C(=O)O (stereo partly drawn) [Compound 1, (4R,4'R)-3,3'-[3,3'-Dithiobis(propanoyl)]bis[2-(2-hydroxyphenyl)-4-thiazolidinecarboxylic acid]] | 97 | 45 | 55 | LD50 [2]: 15000 mg/kg
23 | CC(=O)Oc1ccccc1C1SC[C@@H](C(=O)O)N1C(=O)CCSSCCC(=O)N1C(c2ccccc2OC(C)=O)SC[C@H]1C(=O)O (stereo partly drawn) [Compound 3, (4R,4'R)-3,3'-[3,3'-Dithiobis(propanoyl)]bis[2-(2-acetoxyphenyl)-4-thiazolidinecarboxylic acid]] | 870 | 15 | 55 | 
